SMILES strings stand for the structures.

One series has as its target T1, SULT1A1 from rat (Rattus norvegicus, UniProt P17988).
T1 construct: 1, 3, 4, 5, and 6 were cloned amplified from liver tissue cDNA (Zyagen) by PCR; expressed in transfected cells; host or cells: E. coli BL21(DE3)pLysS, plasmid pETDuet-1
Description: Sulfation of phenolic compounds in vivo by E. coli strain expressing sulfotransferase. Format: cell-based. Particulars: M9, 1 mM IPTG, overnight 37° C.; start concentration per compound 61-287 μM. The procedure:
(§1) The concentration of p-courmaric acid (pHCA) and zosteric acid in the supernatant was quantified by high performance (HPLC) and compared to chemical standards. HPLC was done on a Thermo setup using a HS-F5 column and mobile phases: 5 mM ammonium formate pH 4.0 (A) and acetonitrile (B) at 1.5 mL min-1, using a gradient elution starting at 5% B. From 0.5 min after injection to 7 min, the fraction of B increased linearly from 5% to 60%, and between 9.5 min and 9.6 the fraction of B decreased back to 5%, and remaining there until 12 min. pHCA and zosteric acid were quantified by measuring absorbance at 277 nm.
(§2) To further test the range of substrates that can be sulfated, we used strains carrying plasmids expressing SULT1A1 from rat (Rattus norvegicus) and SULT1E1 from chicken (Gallus gallus domesticus) (Example 1) cloned into the expression vector pETDuet-1, and cysDNCQ from E. coli cloned into expression vector pRSFDuet-1 (Example 2). The plasmids were introduced into the E. coli expression strain BL21(DE3)pLysS as described previously, selecting for transformants with appropriate antibiotics, namely 34 μg mL^1 chloramphenicol for pLysS, 100 μg mL^−1 ampicillin for pETDuet-1-based vectors, and 100 μg mL^−1 kanamycin for pRSFDuet-1-based vectors. […] A control strain without a sulfotransferase gene or cysDNCQ operon was also examined.
(§3) The strains were precultured in 2×YT medium with appropriate antibiotics. 10 μL of these precultures were used to inoculate M9 media with 1 mM IPTG and none or a single substrate for sulfation. After overnight growth at 37° C., 300 rpm the supernatants were withdrawn and examined by HPLC as described in Example 1. The compounds were detected by UV absorbance.

A further series deals with SULT1E1 from chicken. The description is as above. Type of series: cell-based, Gallus gallus domesticus. Conditions: M9, 1 mM IPTG, overnight 37° C.; start concentration per compound 61-287 μM. As to the method: as §1, §2, §3
The target in the next series is T2, SULT1A1 rat + CysDNCQ (Rattus norvegicus, UniProt P17988).
T2 construct: 1, 3, 4, 5, and 6 were cloned amplified from liver tissue cDNA (Zyagen) by PCR; expressed in transfected cells; host or cells: E. coli BL21(DE3)pLysS with pETDuet-1 (SULT1A1) and pRSFDuet-1 (cysDNCQ)
As to the kind of experiment: Sulfation of phenolic compounds in vivo by E. coli strain expressing sulfotransferase with cysDNCQ. Format: cell-based. Conditions: M9, 1 mM IPTG, overnight 37° C.; start concentration per compound 61-287 μM. As to the method:
as §1, §2, §3

The subject of a further series is E. coli MG1655. Description: Toxicity of unsulfated or sulfated product: growth rates of E. coli. Type of series: cell-based. Particulars: M9 0.2% glucose, pH 7, 37° C.; 10-40 mM pHCA or 20 or 40 mM zosteric acid. An excerpt: All media preparations had been adjusted to pH 7. […] Filled squares represent growth rates in media with pHCA.

T2 sequence (P17988 whole entry): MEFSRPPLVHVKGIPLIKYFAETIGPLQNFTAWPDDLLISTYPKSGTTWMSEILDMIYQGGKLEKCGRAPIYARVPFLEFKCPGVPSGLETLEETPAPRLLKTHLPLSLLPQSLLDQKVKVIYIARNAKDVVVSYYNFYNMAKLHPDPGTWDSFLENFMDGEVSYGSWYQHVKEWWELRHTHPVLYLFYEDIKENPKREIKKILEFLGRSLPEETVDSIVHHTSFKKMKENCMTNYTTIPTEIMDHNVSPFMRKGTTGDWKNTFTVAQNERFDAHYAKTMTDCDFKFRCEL
T1 sequence (P17988 whole entry): as above

In the case of `O=C(O)CCc1ccc(O)cc1` [3-(4-Hydroxyphenyl) propionic acid], the “percent reduction in concentration compared to the control strain, SULT1A1” value at SULT1A1 from rat stood at 3%. In addition, in the series on SULT1E1 from chicken, the “percent reduction in concentration compared to the control strain, SULT1E1” value (shortened to “percent reduction in concentration … SULT1E1”) turned out to be 1%. In addition, the “percent reduction in concentration compared to the control strain, SULT1A1 + CysDNCQ” value (“percent reduction … SULT1A1 + CysDNCQ” for short) at SULT1A1 rat + CysDNCQ is recorded as 7%.

On to `O=C(O)C(=O)Cc1ccc(O)cc1` [4-Hydroxyphenyl pyruvic acid], for which, on SULT1A1 from rat, the “percent reduction in concentration compared to the control strain, SULT1A1” value is recorded as 47%. Moreover, the “percent reduction in concentration … SULT1E1” value with SULT1E1 from chicken is 100%. The “percent reduction … SULT1A1 + CysDNCQ” value on SULT1A1 rat + CysDNCQ is recorded as 64%.

As to `CC(=O)Nc1ccc(O)cc1` [4-acetamidophenol, reference compound], the “percent reduction in concentration compared to the control strain, SULT1A1” value on SULT1A1 from rat was 24%. In addition, the “percent reduction in concentration … SULT1E1” value in the series on SULT1E1 from chicken stood at 10%. The “percent reduction … SULT1A1 + CysDNCQ” value on SULT1A1 rat + CysDNCQ is listed as 30%.

As for `O=C(O)c1ccc(O)cc1` [4-hydroxybenzoic acid], at SULT1A1 from rat, the “percent reduction in concentration compared to the control strain, SULT1A1” value amounted to 5%. Also, the “percent reduction in concentration … SULT1E1” value with SULT1E1 from chicken is 4%. On SULT1A1 rat + CysDNCQ, the “percent reduction … SULT1A1 + CysDNCQ” value is reported as 6%.

In the case of `O=c1cc(-c2ccc(O)cc2)oc2cc(O)cc(O)c12` [Apigenin], the “percent reduction in concentration compared to the control strain, SULT1A1” value at SULT1A1 from rat is recorded as 41%. Besides, the “percent reduction in concentration … SULT1E1” value in the series with SULT1E1 from chicken is given as 98%. On SULT1A1 rat + CysDNCQ, the “percent reduction … SULT1A1 + CysDNCQ” value stood at 99%.

As for `COc1cc(/C=C/C(=O)O)ccc1O` [Ferulic acid], the “percent reduction in concentration compared to the control strain, SULT1A1” value on SULT1A1 from rat is 72%. In addition, the “percent reduction in concentration … SULT1E1” value with SULT1E1 from chicken was 67%. At SULT1A1 rat + CysDNCQ, the “percent reduction … SULT1A1 + CysDNCQ” value came out at 100%.

In the case of `O=c1cc(-c2ccc(O)c(O)c2)oc2cc(O)cc(O)c12` [Luteolin], at SULT1A1 from rat, the “percent reduction in concentration compared to the control strain, SULT1A1” value worked out at 27%. Also, the “percent reduction in concentration … SULT1E1” value with SULT1E1 from chicken worked out at 0%. Also, the “percent reduction … SULT1A1 + CysDNCQ” value on SULT1A1 rat + CysDNCQ amounted to 37%.

Take `O=c1c(O)c(-c2ccc(O)c(O)c2)oc2cc(O)cc(O)c12` [Quercetin]: on SULT1A1 from rat, the “percent reduction in concentration compared to the control strain, SULT1A1” value worked out at 75%. Further, the “percent reduction in concentration … SULT1E1” value in the series with SULT1E1 from chicken was found to be 74%. Also, on SULT1A1 rat + CysDNCQ, the “percent reduction … SULT1A1 + CysDNCQ” value is 81%.

For the compound `COc1cc(C(=O)O)ccc1O` [Vanillic acid], the “percent reduction in concentration compared to the control strain, SULT1A1” value on SULT1A1 from rat is given as 33%. The “percent reduction in concentration … SULT1E1” value in the series on SULT1E1 from chicken is listed as 0%. The “percent reduction … SULT1A1 + CysDNCQ” value at SULT1A1 rat + CysDNCQ is on record as 39%.

As for `O=c1c(O)c(-c2ccc(O)c(O)c2)oc2cc(O)ccc12` [fisetin], the “percent reduction in concentration compared to the control strain, SULT1A1” value at SULT1A1 from rat is given as 98%. In addition, the “percent reduction in concentration … SULT1E1” value in the series with SULT1E1 from chicken turned out to be 98%. Moreover, the “percent reduction … SULT1A1 + CysDNCQ” value at SULT1A1 rat + CysDNCQ is given as 100%.

As for `O=C(O)/C=C/c1ccc(O)cc1` [pHCA, p-coumaric acid], the “toxicity to the cells (growth rates in exponential growth phase, FIG. 5)” value in the series with E. coli MG1655 is on record as “toxic to the cells”.

Values taken from patent US11390894B2, “Biological processes for the production of aryl sulfates” (CysBio ApS, priority 2014, dated 2022).
